Measurements as given in ChEMBL document CHEMBL2417501, “Synthesis of 4-aminoquinoline-pyrimidine hybrids as potent antimalarials and their mode of action studies” (Eur J Med Chem, 2013).

System: Vaccinia virus
Experiment: Antiviral activity against Vaccinia virus infected in human HEL cells assessed as reduction of virus-induced cytopathogenicity
Assay type: functional, organism-based
Conditions: Orthopoxvirus vaccinia

Compound | EC50 [µM]
COC(=O)c1c(C)nc(NCCCNc2ccnc3cc(Cl)ccc23)nc1-c1ccccc1 | > 20
Cc1nc(NCCCCNc2ccnc3cc(Cl)ccc23)nc(-c2ccccc2)c1C(=O)OC(C)C | > 4
CCOC(=O)c1c(C)nc(NCCCCNc2ccnc3cc(Cl)ccc23)nc1-c1ccccc1[N+](=O)[O-] | > 4
CCOC(=O)c1c(C)nc(OCCCNc2ccnc3cc(Cl)ccc23)nc1-c1ccccc1 | > 100
CCOC(=O)c1c(C)nc(NCCCCNc2ccnc3cc(Cl)ccc23)nc1-c1ccc(Cl)cc1 | > 20
CCOC(=O)c1c(C)nc(NCCCCNc2ccnc3cc(Cl)ccc23)nc1-c1ccc(F)cc1 | > 100
CCOC(=O)c1cnc(NCCCCNc2ccnc3cc(Cl)ccc23)nc1C | > 100
Nc1nc2c(ncn2COCCO)c(=O)[nH]1 [ACYCLOVIR] | > 250
O=c1[nH]c(=O)n([C@H]2C[C@H](O)[C@@H](CO)O2)cc1/C=C/Br [BRIVUDINE] | 5
Nc1ccn(C[C@@H](CO)OCP(=O)(O)O)c(=O)n1 [CIDOFOVIR] | 17
Nc1nc2c(ncn2COC(CO)CO)c(=O)[nH]1 [GANCICLOVIR] | > 100
